Source: EP1383722B1, “INHIBITION OF POPCORN POLYMER GROWTH” (BAKER HUGHES INCORPORATED, priority 2001, dated 2002)

Test: Popcorn Polymer Glass Tube Reaction Test Method
Settings: total additive 250 ppm, 60°C, 14 to 28 days
Protocol: The Popcorn Polymer Glass Tube Reaction Method allows for the evaluation of many samples at once, and may be described as follows: • 1. Obtain butadiene popcorn polymer "seeds" (in the Examples of this invention the seeds were obtained in 1996 from a BD holding tank). Activate popcorn polymer "seeds" overnight with a 150 watt flood lamp. The "seeds" are firstplaced in a petri dish and covered. Then they are exposed to white light from the lamp for approximately 20 hours. The lamp is positioned 12 inches (30.5 cm) above the dish. • 2. To glass reaction vessels add 1 ml of deionized water. To the glass reaction vessel and water place approximately 0.6200 gms of BD popcorn "seed". Add inhibitor, if any, into the water and seal the reaction vessel with a TEFLON adapter. Completely seal off the adapter by use of a metal adapter plug. Using a gas-tight syringe, inject 15mls of butadiene monomer into the reaction vessel by way of a septum port located at the top of the TEFLON adapter. • 3. Next, place the reaction vessel containing BD popcorn "seed" and butadiene monomer into a block incubator bath which is capable of maintaining a constant temperature of 60°C. Allow the test to run for 14 to 28 days. Remove the reaction vessel from the incubator bath. • 4. Vent the BD out of the vessel by slowly opening the metal adapter plug. Slowly open the reaction vessel and decant the water/BD mixture. Rinse the wet polymer with n-heptane until most of the n-heptane is essentially clear of haze. Blow dry nitrogen into the reaction vessel to further dry the poly-mer. Remove the popcorn polymer carefully with tweezers and spatula and place in a 100 ml beaker. Wash the popcorn polymer material three times with 30 ml aliquots of n-heptane. • 5. Transfer the popcorn polymer sample into a petri dish. Place dish into a vacuum oven. Dry sample at 212°F (100°C) under a 30 mmHg vacuum for 30 minutes. Remove dish and sample from oven. Place dish and popcorn polymer sample in a desiccator. Cool for 1 hour and record the weight of the popcorn polymer. The weight of new polymer growth can be obtained by subtracting the original seed weight from the total popcom polymer weight.

SMILES | %Inhibition (Table II) | Polymer formed mg/15ml (Table II) | %Inhibition (Table III) | Polymer formed mg/15ml (Table III)
CC1(C)CCCC(C)(C)N1[O] [compound 7, 2,2,6,6-tetramethyl-1-piperidinyloxyl] | 50% | 550 mg/15ml | 83% | 80 mg/15ml
COc1cc(C(C)(C)C)c(O)c(C(C)(C)C)c1 [compound 19, 2,6-di-tert-butyl-4-methoxyphenol] | – | – | 77% | 108 mg/15ml
CC(C)(C)c1cc(O)ccc1O [compound 8, tert-butyl hydroquinone] | 30% | 770 mg/15ml | – | –
